Data: paper PMC6128908, “Potent PDZ-Domain PICK1 Inhibitors that Modulate Amyloid Beta-Mediated Synaptic Dysfunction” (Scientific Reports, 2018)
Values joined by “and” are separate entries in the source; they are usually repeats but may differ in a detail not shown here. Identical values can stand only once. Like-named read-outs stand apart in the source and are kept apart here.

Tests used:
PICK1 = PICK1 (Homo sapiens, UniProt Q9NRD5); assay: PICK1 competition (displacement) assay with tracer BIO424; details: for fold more potent than the unsubstituted quinoline: relative to 1u;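 as to all read-outs here: in vitro displacement assay with baculovirus-expressed, truncated dimeric PICK1 missing its final 59 residues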
PICK1, sequence (Q9NRD5 1-356): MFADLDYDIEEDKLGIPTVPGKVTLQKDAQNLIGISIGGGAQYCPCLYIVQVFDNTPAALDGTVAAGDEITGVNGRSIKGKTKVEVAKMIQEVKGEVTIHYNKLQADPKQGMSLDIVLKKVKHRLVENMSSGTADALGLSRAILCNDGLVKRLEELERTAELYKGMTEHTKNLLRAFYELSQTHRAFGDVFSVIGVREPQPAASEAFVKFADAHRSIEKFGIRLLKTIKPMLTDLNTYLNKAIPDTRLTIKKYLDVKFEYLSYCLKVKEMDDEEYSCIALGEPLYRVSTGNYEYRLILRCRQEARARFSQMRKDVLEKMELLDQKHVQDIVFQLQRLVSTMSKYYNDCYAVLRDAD
Procedure: (§1) Fluorescence polarization (FP) and competition binding assays were used to determine PDZ binding affinities and selectivity of compounds as described in Alfonso et al.[20]. Briefly, a fixed concentration (5 nM) of Fluorescein isothiocyanate-labeled peptides comprising the C-terminal amino acids of GluA2 (875–883) and N-methyl-D-aspartate receptor subunit 2B (1474–1482) was used. Binding FP assays were carried out using increasing concentrations of recombinant full-length PICK1, postsynaptic density 95 (PSD95) PDZ 1–2, or Shank3 PDZ, and normalized by subtracting the tracer-only background.
Two recombinant PICK1 constructs were used in this study. […] A truncated, dimeric form of PICK1 lacking the last 59 residues was expressed in baculovirus and purified to homogeneity for use in the in vitro displacement assay. In general, both proteins were purified by Nickel chromatograpy followed by size exclusion chromatography.

Shank3 PDZ = molecular target: T1, Shank3 PDZ (Homo sapiens, UniProt Q9BYB0); assay: Fluorescence polarization selectivity assay, FITC-labeled GKAP peptide; format: binding; details: Supplemental Fig. 3D
T1 construct: Human Shank3 PDZ domain (residues 663–757); made in house; host or cells: E. coli
T1 sequence (Q9BYB0 646-740 limits assumed): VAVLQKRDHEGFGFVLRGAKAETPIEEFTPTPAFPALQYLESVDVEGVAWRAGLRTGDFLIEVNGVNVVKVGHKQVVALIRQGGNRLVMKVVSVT
Procedure: as §1

GRIP [1] = assay: PDZ selectivity counter-screen against GRIP; format: binding; details: data not shown
Source text: Having addressed the potency issue for this tool, we then looked into how selective this compound series was for PICK1 over other closely related PDZ domains. Since the ligand GluA2 recognizes both PICK1 and GRIP we were unsure of whether we could get a selective compound. GRIP (6 PDZ domain-containing protein) is the most closely related PDZ domain to PICK1. PSD95 ([…]) and Shank (a single PDZ domain scaffolding molecule), are also important to counter-screen as they are also located in neurons and could be considered a liability if they were inhibited (Supplemental Fig. 3). […] The selectivity observed for compound 1o was also observed for compound 1z[20].

Solubility comparison = format: physicochemical; details: compared with compound 1z
CA1 pyramidal neurons = assay: Long term depression, whole cell recording in hippocampal slices; format: cell-based; details: 4 µM internally, low frequency stimulation, wild-type mice hippocampal slices
Procedure: Adult mice aged 8 to 9 weeks were decapitated using a guillotine and sliced at the first cervical vertebra. A cut was made through the skin in the middle of the scalp and the skull plate. The skull plate was separated and the brain was removed, and immediately submerged in iced-cold oxygenated Dissection Buffer (211 mM Sucrose, 2.6 mM KCl, 26 mM NaHCO3, 1.25 mM NaH2PO4, 5 mM MgCl2, 0.5 mM CaCl2, and 10 mM glucose) for 2 minutes. The brain was placed on an ice-cold cutting station and the brain cut along the longitudinal cerebral fissure to separate the two hemispheres. Hemispheres were placed in iced-cold oxygenated Dissection Buffer andand cerebellum was pulled away to reveal the hippocampus. The two hemispheres were arranged so that the hippocampi faced each other like two columns and the whole structure was glued onto a mounting plate, and slices were sectioned at 400 µm thickness and transferred to a holding chamber with oxygenated Recovery Buffer (124 mM NaCl, 3 mM KCl, 26 mM NaHCO3, 1.25 mM NaH2PO4, 2 mM MgSO4, 4 mM CaCl2, 10 mM glucose, and 1 mM kynurenic acid). Slices were allowed to recover for 1–1.5 h at room temperature before electrophysiology experiments. Whole-Cell current-clamp measurements on hippocampal CA1 pyramidal neurons were carried out at 32 to 33 °C. The cells were held at −60 mV potential and schaffer collateral fibers were stimulated. […]

[2] = test system: surface GluA2 in cultured hippocampal neurons; assay: Surface GluA2 immunostaining in cultured hippocampal neurons; format: cell-based, mouse
Procedure: Experiments were conducted in accordance with and received approval from the Institutional Animal Care and Use Committees at Biogen Inc. The experiments were carried out in accordance with guidelines laid down by the NIH regarding the care and use of animals for experimental procedures. Primary hippocampal cultures were prepared from embryonic day 18 rodent brains as described previously. Cells were plated on coverslips coated with poly-D-lysine (30 µg/mL) and laminin (2 µg/mL) at a density of 70, 000 cells per well in 12-well plates. […] Embryonic neuronal cultures were prepared from a minimum of three independent pregnant mice on separate days in all of the studies described, and at least 13 neurons were analyzed for each experimental group. […]
Confocal images of immunostained neurons were obtained using a confocal microscope objective (LSM 710, Zeiss) with sequential acquisition settings at a resolution of 1024 × 1024 pixels. […] All analysis and quantifications were carried out using MetaMorph image analysis software (Universal Imaging Corporation). Dendrites from experimental groups were randomly selected and carefully traced, and the average intensity of fluorescence staining was determined for the traced regions. Intensity measurements are expressed in arbitrary units of fluorescence per square area. Acquisition and quantification of images was blinded. […]

GRIP [3] = details: cited from earlier work
PK properties in rats = format: in vivo
Procedure: We next investigated the PK properties of compound 1z in rats to explore if it represented an appropriate in vivo tool compound. […] Several other compounds within this series were tested for brain penetration and were likewise unable to cross the blood brain barrier.

PSD95 PDZ 1-2 = molecular target: T2, PSD95 PDZ 1-2 (Homo sapiens, UniProt P78352); details: cited from earlier work
T2 construct: domains 1–2 in tandem; aminoacids 61–249; 8XHis-TEV; made in house; host or cells: E. coli
T2 sequence (P78352 61-249): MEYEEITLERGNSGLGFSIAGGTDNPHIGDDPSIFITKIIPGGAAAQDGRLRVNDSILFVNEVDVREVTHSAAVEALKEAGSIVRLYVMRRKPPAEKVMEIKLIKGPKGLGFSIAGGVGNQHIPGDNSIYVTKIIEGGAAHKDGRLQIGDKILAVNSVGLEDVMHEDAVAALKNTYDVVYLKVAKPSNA

[4] = test system: AMPA receptor-dependent calcium influx in hippocampal neurons; assay: Calcium mobilization assay (FLIPR), Aβ42-treated neurons; format: cell-based, mouse; details: neurons treated with Aβ42 for 24 hours, 40 μM s-AMPA stimulation
Procedure: Synthetic Aβ42 hexafluoroisopropanol peptide was prepared to the stock concentration of 200 μM by adding 10 μL dimethylsulfoxide to 100 μg of Aβ42 hexafluoroisopropanol pellet and incubating for 30 min at room temperature with occasional mixing. […] The solution was kept at room temperature for 2 h and then used for experiments.
Mouse hippocampal neurons from wild type E16–18 animals were isolated and cultured for 13 days in vitro in Neurobasal media with B27 Supplement, Glutamax, and penicillin/streptomycin (Invitrogen). Neuron cultures were then treated with Aβ in the absence or presence of PICK1 inhibitorsfor 24 hours. Calcium influx was measured using the FLIPR Calcium 4 Assay (Molecular Devices). The cells were loaded with dye for 1 hour at 37 °C and then stimulated with 40 μM s-AMPA (Sigma). Fluorescent recordings were taken using the FLIPR Tetra (Molecular Devices). Baseline measurements before AMPA stimulation were recorded and fluorescent intensity measurements were taken for roughly 3 minutes during and after stimulation. Calcium influx was calculated as the area under the curve and plotted using PRISM GraphPad software.

[5] = rat, in vivo, 5 mg/kg, suspension (CMC/Tween)

SMILES | IC50 (PICK1; IC50, BIO424 as tracer) | further results
CC(C)[C@H](NC(=O)C1(c2ccccc2)CCN(C(=O)[C@@H]2CCCN2C(=O)OC(C)(C)C)CC1)C(=O)O [1a] | 19000 nM and 18900 nM | 
O=C(O)[C@H](CC1CC1)NC(=O)C1(c2ccc(C(F)(F)F)cc2)CCN(c2cc(Br)cc3cccnc23)CC1 [1aa] | 75 nM | 
O=C(O)[C@H](CC1CC1)NC(=O)C1(c2ccc(C(F)(F)F)cc2)CCN(c2cc(C(F)(F)F)cc3cccnc23)CC1 [1ab] | 104 nM | 
COc1cc(N2CCC(C(=O)N[C@@H](CC3CC3)C(=O)O)(c3ccc(C(F)(F)F)cc3)CC2)c2ncccc2c1 [1ac] | 563 nM | 
O=C(O)[C@H](CC1CC1)NC(=O)C1(c2ccc(C(F)(F)F)cc2)CCN(c2cc(OC(F)(F)F)cc3cccnc23)CC1 [1ad] | 2300 nM | 
CC(C)[C@H](NC(=O)C1(C2CCCCC2)CCN(C(=O)[C@@H]2CCCN2C(=O)OC(C)(C)C)CC1)C(=O)O [1b] | 17400 nM | 
CC(C)[C@H](NC(=O)C1(N2CCOCC2)CCN(C(=O)[C@@H]2CCCN2C(=O)OC(C)(C)C)CC1)C(=O)O [1c] | ~175000 nM | 
CC(C)[C@H](NC(=O)C1(Cc2ccccc2)CCN(C(=O)[C@@H]2CCCN2C(=O)OC(C)(C)C)CC1)C(=O)O [1d] | 20600 nM | 
CC(C)[C@H](NC(=O)C1(c2ccc(Br)cc2)CCN(C(=O)[C@@H]2CCCN2C(=O)OC(C)(C)C)CC1)C(=O)O [1e] | 4290 nM | 
CC(C)[C@H](NC(=O)C1(c2ccc(C(F)(F)F)cc2)CCN(C(=O)[C@@H]2CCCN2C(=O)OC(C)(C)C)CC1)C(=O)O [1f] | 1560 nM and 1600 nM | 
CC(C)(C)OC(=O)N1CCC[C@H]1C(=O)N1CCC(C(=O)NCC(=O)O)(c2ccc(Br)cc2)CC1 [1g] | > 175000 nM | 
C[C@H](NC(=O)C1(c2ccc(Br)cc2)CCN(C(=O)[C@@H]2CCCN2C(=O)OC(C)(C)C)CC1)C(=O)O [1h] | 12100 nM and 12000 nM | 
CC(C)(C)OC(=O)N1CCC[C@H]1C(=O)N1CCC(C(=O)NC(C)(C)C(=O)O)(c2ccc(Br)cc2)CC1 [1i] | > 175000 nM | 
CC(C)(C)OC(=O)N1CCC[C@H]1C(=O)N1CCC(C(=O)N[C@@H](Cc2c[nH]c3ccccc23)C(=O)O)(c2ccc(Br)cc2)CC1 [1j] | > 175000 nM | 
CC(C)(C)OC(=O)N1CCC[C@H]1C(=O)N1CCC(C(=O)N[C@@H](Cc2c[nH]cn2)C(=O)O)(c2ccc(Br)cc2)CC1 [1k] | > 175000 nM | 
CC(C)(C)OC(=O)N1CCC[C@H]1C(=O)N1CCC(C(=O)N[C@H](C(=O)O)C2CCCC2)(c2ccc(Br)cc2)CC1 [1l] | 815 nM | 
CC(C)(C)OC(=O)N1CCC[C@H]1C(=O)N1CCC(C(=O)N[C@@H](CC2CC2)C(=O)O)(c2ccc(Br)cc2)CC1 [1m] | 718 nM | 
CC(C)(C)OC(=O)N1CCC[C@H]1C(=O)N1CCC(C(=O)N[C@@H](CC2CC2)C(=O)O)(c2ccc(C(F)(F)F)cc2)CC1 [1n] |  | IC50 (PICK1; IC50 (potency)): 130 nM
O=C(O)[C@H](CC1CC1)NC(=O)C1(c2ccc(Br)cc2)CCN(Cc2ccccc2C(F)(F)F)CC1 [1o] | 573 nM | selectivity for PICK1 over Shank PDZ domain (Shank3 PDZ): selectivity; selectivity for PICK1 over GRIP (GRIP [1]): selectivity
O=C(O)[C@H](CC1CC1)NC(=O)C1(c2ccc(Br)cc2)CCN(Cc2cccc(C(F)(F)F)c2)CC1 [1p] | 2560 nM | 
O=C(O)[C@H](CC1CC1)NC(=O)C1(c2ccc(Br)cc2)CCN(Cc2ccc(C(F)(F)F)cc2)CC1 [1q] | 5930 nM | 
CC(c1ccccc1C(F)(F)F)N1CCC(C(=O)N[C@@H](CC2CC2)C(=O)O)(c2ccc(Br)cc2)CC1 (some centres unmarked) [1r] | 1230 nM | solubility (Solubility comparison): better than compound 1z; induction of long term depression (LTD) (CA1 pyramidal neurons): LTD was not induced
O=C(O)[C@H](CC1CC1)NC(=O)C1(c2ccc(C(F)(F)F)cc2)CCN(c2ccccc2)CC1 [1s] | 2040 nM | 
O=C(O)[C@H](CC1CC1)NC(=O)C1(c2ccc(C(F)(F)F)cc2)CCN(c2cccc3ccccc23)CC1 [1t] | 8470 nM | 
O=C(O)[C@H](CC1CC1)NC(=O)C1(c2ccc(C(F)(F)F)cc2)CCN(c2cccc3cccnc23)CC1 [1u] | 4600 nM | 
Cc1cc(N2CCC(C(=O)N[C@@H](CC3CC3)C(=O)O)(c3ccc(C(F)(F)F)cc3)CC2)c2ncccc2c1 [1v] | 348 nM | fold more potent than the unsubstituted quinoline (PICK1): 10 fold
CCc1cc(N2CCC(C(=O)N[C@@H](CC3CC3)C(=O)O)(c3ccc(C(F)(F)F)cc3)CC2)c2ncccc2c1 [1w] | 269 nM | 
CC(C)c1cc(N2CCC(C(=O)N[C@@H](CC3CC3)C(=O)O)(c3ccc(C(F)(F)F)cc3)CC2)c2ncccc2c1 [1x] | 508 nM | 
O=C(O)[C@H](CC1CC1)NC(=O)C1(c2ccc(C(F)(F)F)cc2)CCN(c2cc(F)cc3cccnc23)CC1 [1y] | 626 nM | 
O=C(O)[C@H](CC1CC1)NC(=O)C1(c2ccc(C(F)(F)F)cc2)CCN(c2cc(Cl)cc3cccnc23)CC1 [1z] |  | surface GluA2 levels relative to untreated neurons ([2]; 3 μM, 24 hours, cultured hippocampal neurons): increased; total amount of GluA2 in the cytoplasm and on the cell surface ([2]; inhibitor treatment, data not shown): unchanged; selectivity for PICK1 over GRIP (GRIP [3]): selectivity; exposure in the brain (brain penetration) (PK properties in rats): no exposure in the brain; AUC (PK properties in rats; [5]): 2920 ng·h/mL; Cmax (PK properties in rats; [5]): 1360 ng/mL; selectivity for PICK1 over PSD95 (PSD95 PDZ 1-2): selectivity; effect on Aβ42-induced increase in intracellular calcium concentration [4]: attenuated; IC50 (PICK1; IC50 (potency)): 69 nM; fold more potent than the unsubstituted quinoline (PICK1): 67 fold
